In US9453014B2, “Cyclic amide derivatives as inhibitors of 11-β-hydroxysteroid dehydrogenase and uses thereof” (CONNEXIOS LIFE SCIENCES PVT. LTD., priority 2011, dated 2016):
pIC50: −log10 of the molar value.

Each compound was assayed against T1, human full length HSD11 β 1 (Homo sapiens, UniProt P28845) (assay: In Vitro HSD11β1 Inhibition Assay). Settings: CHO cells transiently expressing human HSD11β1; 200 nM cortisone+500 uM NADPH overnight; cortisone to cortisol by LC/MS-MS; read-out: 11βHSD1 (IC50).
T1 construct: transient expression of human full length HSD11 β 1 expression vector; host or cells: CHO cells (transient transfection)
T1 sequence (P28845 whole entry): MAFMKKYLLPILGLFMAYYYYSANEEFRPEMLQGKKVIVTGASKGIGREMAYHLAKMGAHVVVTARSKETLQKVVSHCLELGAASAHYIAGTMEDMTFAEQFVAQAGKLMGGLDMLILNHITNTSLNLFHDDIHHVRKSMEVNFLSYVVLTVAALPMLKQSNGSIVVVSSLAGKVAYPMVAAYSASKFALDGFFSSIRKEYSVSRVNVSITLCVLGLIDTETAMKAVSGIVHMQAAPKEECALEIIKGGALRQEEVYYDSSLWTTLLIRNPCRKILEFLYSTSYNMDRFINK
Assay type: cell-based
Protocol: In Vitro HSD11β1 Inhibition Assay:
CHO cells were maintained in Dulbecco's modified Eagle's medium/nutrient mixture F-12 containing 5% fetal bovine serum (v/v) and 2 mM glutamine. Cells were cultured at 37° C. with 5% CO2. For transient expression of human full length HSD11 β 1 expression vector (OriGene Technologies), cells were seeded at a density of 2×10^5 cells/well in a 6-well plate. Transfection was done using Turbofectin8 reagent (OriGene Technologies), according to the protocol provided with the reagent. After 24 hours post-transfection, cells were trypsinized and pooled together before they were re-seeding to 96-well plate at a density of 40000 cells/well. 24 hours after re-seeding, cells were incubated with 200 nM cortisone+500 uM NADPH (or along with small molecule inhibitors) overnight. The enzymatic activity or inhibition of enzyme activity was measured by estimating the conversion of cortisone to cortisol by LC/MS-MS method. The IC50 in nM was calculated from an 8 point log scale of concentration versus inhibition.
Work on `CC(CC(=O)N1CCCC2C(C(=O)O)CCCC21)c1c[nH]c2cccc(C#N)c12` (centres unmarked) [Compound 197, 1-[3-(4-cyano-1H-indol-3-yl)butanoyl]decahydroquinoline-5-carboxylic acid] yielded a pIC50 of less than 6.60. `CC1CCN(C(=O)CCc2c[nH]c3ccccc23)C2CCCCC12` (centres unmarked) [Compound 12, 3-(1H-indol-3-yl)-1-(4-methyloctahydroquinolin-1(2H)-yl)propan-1-one] was tested, and the pIC50 was less than 6.60. With `O=C(CCc1c[nH]c2ccccc12)N1CCCC2CCCCC21` (single isomer, unassigned) [Compound 52, 3-(1H-indol-3-yl)-1-(octahydroquinolin-1(2H)-yl)propan-1-one] the pIC50 was less than 6.60. `CC(CC(=O)N1CCCC2(c3ccccc3)CCCCC12)c1c[nH]c2cccc(Cl)c12` (centres unmarked) [Example 128, 3-(4-chloro-1H-indol-3-yl)-1-(4a-phenyloctahydroquinolin-1(2H)-yl)butan-1-one] was tested, and the pIC50 was less than 6.60. `O=C(O)C1CC2CCCCC2N(C(=O)CC(c2ccccc2)c2c[nH]c3cc(F)ccc23)C1` (centres unmarked) [Example 175, 1-[3-(6-fluoro-1H-indol-3-yl)-3-phenylpropanoyl]decahydroquinoline-3-carboxylic acid] showed a pIC50 of less than 6.60. In the case of `O=C(O)C1CCN(C(=O)CC(c2cccs2)c2c[nH]c3cccc(F)c23)C2CCCCC12` (centres unmarked) [Example 156, 1-[3-(4-fluoro-1H-indol-3-yl)-3-(thiophen-2-yl)propanoyl]decahydroquinoline-4-carboxylic acid], the pIC50 was greater than 7.00. `O=C(CCc1cn(S(=O)(=O)c2ccccc2)c2ccccc12)N1CCCC2CCCCC21` (centres unmarked) [Compound 51, 1-(octahydroquinolin-1(2H)-yl)-3-[1-(phenylsulfonyl)-1H-indol-3-yl]propan-1-one] gave a pIC50 of less than 6.60. In the case of `CC(CC(=O)N1CCCC2CC(C(=O)O)CCC21)c1c[nH]c2cccc(Cl)c12` (centres unmarked) [Compound 228, 1-[3-(4-chloro-1H-indol-3-yl)butanoyl]decahydroquinoline-6-carboxylic acid], the pIC50 was less than 6.60. For `Cc1cccc2[nH]cc(C(C)CC(=O)N3CCCC4(C#N)CCCCC34)c12` (centres unmarked) [Example 149, 1-[3-(4-methyl-1H-indol-3-yl)butanoyl]octahydroquinoline-4a(2H)-carbonitrile], the pIC50 was less than 6.60. For `CC(CC(=O)N1C(C)CCC2C(C(=O)O)CCCC21)c1c[nH]c2cccc(-c3cccs3)c12` (centres unmarked) [Compound 232, 2-methyl-1-{3-[4-(thiophen-2-yl)-1H-indol-3-yl]butanoyl}decahydroquinoline-5-carboxylic acid], the pIC50 was 6.70 to 6.82. Work on `CC(CC(=O)N1CCCC2CCCCC21)c1c[nH]c2cccc(-c3ccc(C(=O)O)o3)c12` (centres unmarked) [Compound 246, 5-{3-[4-(octahydroquinolin-1(2H)-yl)-4-oxobutan-2-yl]-1H-indol-4-yl}furan-2-carboxylic acid] yielded a pIC50 of less than 6.60. In the case of `CC(CC(=O)N1CCCC2CCCCC21)c1cn(C)c2ccccc12` (centres unmarked) [Example 94, 3-(1-methyl-1H-indol-3-yl)-1-(octahydroquinolin-1(2H)-yl)butan-1-one], the pIC50 was 6.70 to 6.82. For `O=C(CSc1c[nH]c2ccccc12)N1CCCC2CCCCC21` (centres unmarked) [Compound 5, 2-(1H-indol-3-ylsulfanyl)-1-(octahydroquinolin-1(2H)-yl)ethanone], the pIC50 was greater than 7.00. For `CC(CC(=O)N1CCCC2C(C(=O)O)CCCC21)c1c[nH]c2cccc(-c3cccn3C)c12` (centres unmarked) [Compound 244, 1-{3-[4-(1-methyl-1H-pyrrol-2-yl)-1H-indol-3-yl]butanoyl}decahydroquinoline-5-carboxylic acid], the pIC50 was less than 6.60. `CC1CC2CCCCC2N1C(=O)CCc1nc2ccccc2s1` (centres unmarked) [Example 83, 3-(1,3-benzothiazol-2-yl)-1-(2-methyloctahydro-1H-indol-1-yl)propan-1-one] gave a pIC50 of less than 6.60. `O=C(/C=C/c1c[nH]c2ccccc12)N1CCCC2CCCCC21` (centres unmarked) [Compound 8, (2E)-3-(1H-indol-3-yl)-1-(octahydroquinolin-1(2H)-yl)prop-2-en-1-one] showed a pIC50 of 6.82 to 7.00. `Cc1cccc2c1c(CCC(=O)N1CCO[C@@H]3CCCC[C@@H]31)cn2C` (relative stereo) [Compound 66, 3-(1,4-dimethyl-1H-indol-3-yl)-1-[cis-(4a,8a)-octahydro-4H-1,4-benzoxazin-4-yl]propan-1-one] gave a pIC50 greater than 7.00. With `CC(CC(=O)N1CCCC2C(C(=O)O)CCCC21)c1c[nH]c2cccc(C3CC3)c12` (single isomer, unassigned) [Compound 200, 1-[3-(4-cyclopropyl-1H-Indol-3-yl)butanoyl]decahydroquinoline-5-carboxylic acid] the pIC50 was greater than 7.00. Compound `Cn1nc(CCC(=O)N2CCCC3CCCCC32)c2ccccc21` (centres unmarked) [Example 89, 3-(1-methyl-1H-indazol-3-yl)-1-(octahydroquinolin-1(2H)-yl)propan-1-one] has a pIC50 of 6.70 to 6.82. For `O=C(CCCc1c[nH]c2ccccc12)N1CCCC2CCCCC21` (centres unmarked) [Compound 11, 4-(1H-indol-3-yl)-1-(octahydroquinolin-1(2H)-yl)butan-1-one], the pIC50 was 6.82 to 7.00. In the case of `CC1CCC2CCCCC2N1C(=O)CCc1c[nH]c2ncccc12` (centres unmarked) [Example 86, 1-(2-methyloctahydroquinolin-1(2H)-yl)-3-(1H-pyrrolo[2,3-b]pyridin-3-yl)propan-1-one], the pIC50 was greater than 7.00. `Cn1cc(C2CC2C(=O)N2CCCC3CCCCC32)c2ccccc21` (centres unmarked) [Example 97, [2-(1-methyl-1H-indol-3-yl)cyclopropyl](octahydroquinolin-1(2H)-yl)methanone] gave a pIC50 of 6.70 to 6.82. For `CC(CC(=O)N1CCCC2(C)CCCCC12)c1c[nH]c2cccc(F)c12` (centres unmarked) [Example 114, 3-(4-fluoro-1H-indol-3-yl)-1-(4a-methyloctahydroquinolin-1(2H)-yl)butan-1-one], the pIC50 was greater than 7.00. With `O=C(O)C1CCN(C(=O)CC(c2ccc(F)cc2)c2c[nH]c3cccc(F)c23)C2CCCCC12` (single isomer, unassigned) [Compound 226, 1-[3-(4-fluoro-1H-indol-3-yl)-3-(4-fluorophenyl)propanoyl]decahydroquinoline-4-carboxylic acid] the pIC50 was less than 6.60. `COc1cccc2[nH]cc(C(C)CC(=O)N3CCCC4C(C(=O)O)CCCC43)c12` (centres unmarked) [Compound 264, 1-[3-(4-methoxy-1H-indol-3-yl)butanoyl]decahydroquinoline-5-carboxylic acid] was tested, and the pIC50 was less than 6.60. In the case of `O=C1CCN(C(=O)CCc2c[nH]c3ccccc23)C2CCCCC12` (centres unmarked) [Compound 26, 1-[3-(1H-indol-3-yl)propanoyl]octahydroquinolin-4(1H)-one], the pIC50 was less than 6.60. `CC(C)C(CC(=O)N1CCCC2(C)CCCCC12)c1c[nH]c2cccc(F)c12` (single isomer, unassigned) [Example 115, 3-(4-fluoro-1H-indol-3-yl)-4-methyl-1-(4a-methyloctahydroquinolin-1(2H)-yl)pentan-1-one] was tested, and the pIC50 was less than 6.60. Work on `CC(CC(=O)N1CCCC2C(C(=O)O)CCCC21)c1c[nH]c2cccc(-c3cccs3)c12` (centres unmarked) [Compound 192, 1-{3-[4-(thiophen-2-yl)-1H-indol-3-yl]butanoyl}decahydroquinoline-5-carboxylic acid] yielded a pIC50 greater than 7.00. With `CC(CC(=O)N1C(C)CCC2C(C(=O)O)CCCC21)c1c[nH]c2cccc(C3CC3)c12` (centres unmarked) [Compound 230, 1-[3-(4-cyclopropyl-1H-indol-3-yl)butanoyl]-2-methyldecahydroquinolin-5-carboxylic acid] the pIC50 was 6.70 to 6.82. `COC(=O)C1CCN(C(=O)CC(C)c2c[nH]c3ccccc23)C2CCCCC12` (centres unmarked) [Example 102, methyl 1-[3-(1H-indol-3-yl)butanoyl]decahydroquinoline-4-carboxylate] was tested, and the pIC50 was less than 6.60. Work on `CC(CC(=O)N1CCOC2CCCCC21)c1c[nH]c2cccc(F)c12` (single isomer, unassigned) [Example 138, 3-(4-fluoro-1H-indol-3-yl)-1-(octahydro-4H-1,4-benzoxazin-4-yl)butan-1-one] yielded a pIC50 of 6.70 to 6.82. Work on `O=C(CCc1nc2ccccc2s1)N1CCC2CCCCC21` (centres unmarked) [Example 81, 3-(1,3-benzothiazol-2-yl)-1-(octahydro-1H-indol-1-yl)propan-1-one] yielded a pIC50 greater than 7.00. In the case of `CC(CC(=O)N1CCOC2CCCCC21)c1c[nH]c2ncccc12` (centres unmarked) [Compound 22, 1-(octahydro-4H-1,4-benzoxazin-4-yl)-3-(1H-pyrrolo[2,3-b]pyridin-3-yl)butan-1-one], the pIC50 was less than 6.60. `CC(CC(=O)N1CCCC2CCCCC21)c1c[nH]c2ncccc12` (single isomer, unassigned) [Example 145, 1-(octahydroquinolin-1(2H)-yl)-3-(1H-pyrrolo[2,3-b]pyridin-3-yl)butan-1-one] was tested, and the pIC50 was greater than 7.00. `CC(CC(=O)N1CCCC2C(C(=O)O)CCCC21)c1c[nH]c2cccc(C3CC3)c12` (single isomer, unassigned) [Compound 198, 1-[3-(4-cyclopropyl-1H-indol-3-yl)butanoyl]decahydroquinoline-5-carboxylic acid] gave a pIC50 of 6.82 to 7.00. With `Cc1cccc2[nH]cc(CCC(=O)N3CCCC4CCCCC43)c12` (centres unmarked) [Compound 20, 3-(4-methyl-1H-indol-3-yl)-1-(octahydroquinolin-1(2H)-yl)propan-1-one] the pIC50 was greater than 7.00. Work on `CC(CC(=O)N1CCCC2CC(C(=O)O)CCC21)c1c[nH]c2cccc(-c3ccco3)c12` (centres unmarked) [Compound 229, 1-{3-[4-(furan-2-yl)-1H-indol-3-yl]butanoyl}decahydroquinoline-6-carboxylic acid] yielded a pIC50 of 6.82 to 7.00. With `CC(C)C(CC(=O)N1CCCC2CCCCC21)c1c[nH]c2ccccc12` (centres unmarked) [Example 95, 3-(1H-indol-3-yl)-4-methyl-1-(octahydroquinolin-1(2H)-yl)pentan-1-one] the pIC50 was greater than 7.00.
